What was measured:
Format in all cases: cell-based
HepG2 [1] = experiment: WST cellular proliferation assay in HepG2 HCC cells; conditions: 24-48 hrs, sorafenib 1, 2 and 5 micromolar
Huh7 = experiment: WST cellular proliferation assay in Huh7 HCC cells; conditions: 24-48 hrs, sorafenib 1, 2 and 5 micromolar
HepG2 [2] = experiment: Western blot of metabolic markers (pAMPK, pAKT, pACC) in HepG2 cells; parameters: dose or concentration left out as unconfirmed; conditions: HepG2, sorafenib (FIG. 6A)
HT-29 = experiment: 5′FU dosage determination in HT-29 cells, 96-well plate; conditions: HT-29, after 48 hrs

Structure (SMILES): CNC(=O)c1cc(Oc2ccc(NC(=O)Nc3ccc(Cl)c(C(F)(F)F)c3)cc2)ccn1 [sorafenib]
- cellular proliferation (HepG2 [1]): decrease
- cellular proliferation (Huh7): decrease
- pAMPK expression (HepG2 [2]): increase

Structure (SMILES): O=c1[nH]cc(F)c(=O)[nH]1 [5′FU, 5-fluorouracil]
- concentration showing the best effect without suggestion of cytotoxicity (HT-29): 25 µM

From patent US10898547B2, “Method of treatment of breast or colon cancer by administering muscle stimulated myokines” (Unicorn Therapeutics, LLC, priority 2016, dated 2021)
